Measurements taken from patent US9006451B1, “2-anilinonicotinyl based chalcones useful as potential anticancer agents and process for preparation thereof” (Council of Scientific and Industrial Research, priority 2013, dated 2015).
Like-named read-outs stand apart in the source and are kept apart here.

Legend:
Type in all cases: cell-based
SK-MEL-5 = assay: NCI 60 human tumor cell line screen (SRB): SK-MEL-5; conditions: SK-MEL-5, Melanoma, 48 hours, read-out: GI50 values (μM conc.)
Description: (§1) The in vitro anticancer activity studies for these chalcone analogues were carried out at the National Cancer Institute, USA.
(§2) The chalcone compounds have been tested at NCI, USA, against sixty human tumor cell lines derived from nine cancer types (leukemia, non-small cell lung cancer, colon cancer, CNS cancer, melanoma cancer, ovarian cancer, renal cancer, prostate cancer and breast cancer). For these compounds results are expressed as growth inhibition (GI50) values as per NCI protocol.
(§3) We describe here the development and implementation of a pilot-scale, in vitro, anticancer drug screen utilizing a panel of 60 human tumor cell lines organized into subpanels representing leukemia, melanoma, and cancers of the lung, colon, kidney, ovary, and central nervous system. The ultimate goal of this disease-oriented screen is to facilitate the discovery of new compounds with potential cell line-specific and/or subpanel-specific antitumor activity. In the current screening protocol, each cell line is inoculated onto microtiter plates, then preincubated for 28 hours. Subsequently, test agents are added in five 10-fold dilutions and the culture is incubated for an additional 48 hours. For each test agent, a dose-response profile is generated. End-point determinations of the cell viability or cell growth are performed by in situ fixation of cells, followed by staining with a protein-binding dye, sulforhodamine B (SRB). The SRB binds to the basic amino acids of cellular macromolecules; the solubilized stain is measured spectrophotometrically to determine relative cell growth or viability in treated and untreated cells.

MALME-3M = assay: NCI 60 human tumor cell line screen (SRB): MALME-3M; conditions: Melanoma, 48 hours, read-out: GI50 values (μM conc.)
Description: as §1, §2, §3

HS 578T = assay: NCI 60 human tumor cell line screen (SRB): HS 578T; conditions: Breast, 48 hours, read-out: GI50 values (μM conc.)
Description: as §1, §2, §3

HL-60(TB) = assay: NCI 60 human tumor cell line screen (SRB): HL-60(TB); conditions: Leukemia, 48 hours, read-out: GI50 values (μM conc.)
Description: as §1, §2, §3

ACHN = assay: NCI 60 human tumor cell line screen (SRB): ACHN; conditions: Renal, 48 hours, read-out: GI50 values (μM conc.)
Description: as §1, §2, §3

786-0 = assay: NCI 60 human tumor cell line screen (SRB): 786-0; conditions: 786-0, Renal, 48 hours, read-out: GI50 values (μM conc.)
Description: as §1, §2, §3

OVCAR-3 = assay: NCI 60 human tumor cell line screen (SRB): OVCAR-3; conditions: OVCAR-3, Ovarian, 48 hours, read-out: GI50 values (μM conc.)
Description: as §1, §2, §3

SW-620 = assay: NCI 60 human tumor cell line screen (SRB): SW-620; conditions: SW-620, Colon, 48 hours, read-out: GI50 values (μM conc.)
Description: as §1, §2, §3

RPMI-8226 = assay: NCI 60 human tumor cell line screen (SRB): RPMI-8226; conditions: RPMI-8226, Leukemia, 48 hours, read-out: GI50 values (μM conc.)
Description: as §1, §2, §3

U251 = assay: NCI 60 human tumor cell line screen (SRB): U251; conditions: U-251, U251, CNS, 48 hours, read-out: GI50 values (μM conc.)
Description: as §1, §2, §3

NCI-H23 = assay: NCI 60 human tumor cell line screen (SRB): NCI-H23; conditions: NCI-H23, Non-small cell lung, 48 hours, read-out: GI50 values (μM conc.)
Description: as §1, §2, §3

TK-10 = assay: NCI 60 human tumor cell line screen (SRB): TK-10; conditions: TK-10, Renal, 48 hours, read-out: GI50 values (μM conc.)
Description: as §1, §2, §3

CCRF-CEM = assay: NCI 60 human tumor cell line screen (SRB): CCRF-CEM; conditions: Leukemia, 48 hours, read-out: GI50 values (μM conc.)
Description: as §1, §2, §3

NCI-H322M = assay: NCI 60 human tumor cell line screen (SRB): NCI-H322M; conditions: Non-small cell lung, 48 hours, read-out: GI50 values (μM conc.)
Description: as §1, §2, §3

NCI-H460 = assay: NCI 60 human tumor cell line screen (SRB): NCI-H460; conditions: NCI-H460, Non-small cell lung, 48 hours, read-out: GI50 values (μM conc.)
Description: as §1, §2, §3

COLO-205 = assay: NCI 60 human tumor cell line screen (SRB): COLO-205; conditions: COLO-205, Colon, 48 hours, read-out: GI50 values (μM conc.)
Description: as §1, §2, §3

MDA-MB-435 = assay: NCI 60 human tumor cell line screen (SRB): MDA-MB-435; conditions: MDA-MB-435, Melanoma, 48 hours, read-out: GI50 values (μM conc.)
Description: as §1, §2, §3

OVCAR-5 = assay: NCI 60 human tumor cell line screen (SRB): OVCAR-5; conditions: OVCAR-5, Ovarian, 48 hours, read-out: GI50 values (μM conc.)
Description: as §1, §2, §3

MCF7 = assay: NCI 60 human tumor cell line screen (SRB): MCF7
Description: as §1, §2, §3

SF-268 = assay: NCI 60 human tumor cell line screen (SRB): SF-268; conditions: SF-268, CNS, 48 hours, read-out: GI50 values (μM conc.)
Description: as §1, §2, §3

HCT-116 = assay: NCI 60 human tumor cell line screen (SRB): HCT-116; conditions: HCT-116, Colon, 48 hours, read-out: GI50 values (μM conc.)
Description: as §1, §2, §3

SF-295 = assay: NCI 60 human tumor cell line screen (SRB): SF-295; conditions: SF-295, CNS, 48 hours, read-out: GI50 values (μM conc.)
Description: as §1, §2, §3

SNB-75 = assay: NCI 60 human tumor cell line screen (SRB): SNB-75; conditions: SNB-75, CNS, 48 hours, read-out: GI50 values (μM conc.)
Description: as §1, §2, §3

HCC-2998 = assay: NCI 60 human tumor cell line screen (SRB): HCC-2998; conditions: HCC-2998, Colon, 48 hours, read-out: GI50 values (μM conc.)
Description: as §1, §2, §3

A549/ATCC = assay: NCI 60 human tumor cell line screen (SRB): A549/ATCC; conditions: Non-small cell lung, 48 hours, read-out: GI50 values (μM conc.)
Description: as §1, §2, §3

SN12C = assay: NCI 60 human tumor cell line screen (SRB): SN12C; conditions: Renal, 48 hours, read-out: GI50 values (μM conc.)
Description: as §1, §2, §3

OVCAR-8 = assay: NCI 60 human tumor cell line screen (SRB): OVCAR-8; conditions: OVCAR-8, Ovarian, 48 hours, read-out: GI50 values (μM conc.)
Description: as §1, §2, §3

NCI/ADR-RES = assay: NCI 60 human tumor cell line screen (SRB): NCI/ADR-RES; conditions: Ovarian, 48 hours, read-out: GI50 values (μM conc.)
Description: as §1, §2, §3

UACC-62 = assay: NCI 60 human tumor cell line screen (SRB): UACC-62; conditions: UACC-62, Melanoma, 48 hours, read-out: GI50 values (μM conc.)
Description: as §1, §2, §3

SF-539 = assay: NCI 60 human tumor cell line screen (SRB): SF-539; conditions: SF-539, CNS, 48 hours, read-out: GI50 values (μM conc.)
Description: as §1, §2, §3

[1] = MCF7, Breast, 48 hours, SRB, read-out: GI50 values (μM conc.)
[2] = MCF7, comparison table, read-out: GI50 μM in MCF7

Structure (SMILES): COc1cc(C(=O)/C=C/c2cccnc2Nc2ccccc2)cc(OC)c1OC [6a, (E)-3-(2-(Phenylamino)pyridin-3-yl)-1-(3,4,5-trimethoxyphenyl)prop-2-en-1-one]
- GI50 (SK-MEL-5): 1.34 µM
- GI50 (MALME-3M): 1.92 µM
- GI50 (HS 578T): 2.15 µM
- GI50 (HL-60(TB)): 1.52 µM
- GI50 (ACHN): 1.28 µM
- GI50 (786-0): 1.29 µM
- GI50 (OVCAR-3): 0.42 µM
- GI50 (SW-620): 0.42 µM
- GI50 (RPMI-8226): 0.35 µM
- GI50 (U251): 1.12 µM
- GI50 (NCI-H23): 1.43 µM
- GI50 (TK-10): 1.82 µM
- GI50 (CCRF-CEM): 0.32 µM
- GI50 (NCI-H322M): 1.9 µM
- GI50 (NCI-H460): 1.8 µM
- GI50 (COLO-205): 1.29 µM
- GI50 (MDA-MB-435): 0.63 µM
- GI50 (OVCAR-5): 1.54 µM
- GI50 (MCF7; [1]): 0.35 µM
- GI50 (MCF7; [2]): 0.35 µM
- GI50 (SF-268): 1.55 µM
- GI50 (HCT-116): 0.33 µM
- GI50 (SF-295): 1.87 µM
- GI50 (SNB-75): 1.13 µM
- GI50 (HCC-2998): 1.18 µM
- GI50 (A549/ATCC): 1.3 µM
- GI50 (SN12C): 1.21 µM
- GI50 (OVCAR-8): 1.27 µM
- GI50 (NCI/ADR-RES): 1.03 µM
- GI50 (UACC-62): 1.29 µM
- GI50 (SF-539): 1.65 µM

Structure (SMILES): COc1cc(C(=O)/C=C/c2cccnc2Nc2ccc(Cl)cc2)cc(OC)c1OC [6ax, (E)-3-(2-(4-Chlorophenylamino)pyridin-3-yl)-1-(3,4,5-trimethoxyphenyl)prop-2-en-1-one]
- GI50 (SK-MEL-5): 1.5 µM
- GI50 (MALME-3M): 1.91 µM
- GI50 (HS 578T): 3.08 µM
- GI50 (HL-60(TB)): 1.59 µM
- GI50 (ACHN): 1.77 µM
- GI50 (786-0): 1.46 µM
- GI50 (OVCAR-3): 1.31 µM
- GI50 (SW-620): 0.95 µM
- GI50 (RPMI-8226): 0.65 µM
- GI50 (U251): 1.25 µM
- GI50 (NCI-H23): 1.58 µM
- GI50 (TK-10): 1.87 µM
- GI50 (CCRF-CEM): 0.37 µM
- GI50 (NCI-H322M): 1.95 µM
- GI50 (NCI-H460): 1.92 µM
- GI50 (COLO-205): 1.83 µM
- GI50 (MDA-MB-435): 1.49 µM
- GI50 (OVCAR-5): 1.74 µM
- GI50 (MCF7; [1]): 1.02 µM
- GI50 (MCF7; [2]): 1.02 µM
- GI50 (SF-268): 1.72 µM
- GI50 (HCT-116): 0.56 µM
- GI50 (SF-295): 1.93 µM
- GI50 (SNB-75): 1.63 µM
- GI50 (HCC-2998): 1.52 µM
- GI50 (A549/ATCC): 1.63 µM
- GI50 (SN12C): 1.46 µM
- GI50 (OVCAR-8): 1.63 µM
- GI50 (NCI/ADR-RES): 1.64 µM
- GI50 (UACC-62): 1.54 µM
- GI50 (SF-539): 1.71 µM

Structure (SMILES): COc1ccc(Nc2ncccc2/C=C/C(=O)c2cc(OC)c(OC)c(OC)c2)cc1 [6h, (E)-3-(2-(4-Methoxyphenylamino)pyridin-3-yl)-1-(3,4,5-trimethoxyphenyl)prop-2-en-1-one]
- GI50 (SK-MEL-5): 1.39 µM
- GI50 (MALME-3M): 1.4 µM
- GI50 (HS 578T): 2.68 µM
- GI50 (ACHN): 1.55 µM
- GI50 (786-0): 1.69 µM
- GI50 (OVCAR-3): 1.64 µM
- GI50 (SW-620): 1.2 µM
- GI50 (RPMI-8226): 1.08 µM
- GI50 (U251): 1.27 µM
- GI50 (NCI-H23): 1.72 µM
- GI50 (CCRF-CEM): 0.5 µM
- GI50 (NCI-H322M): 2.13 µM
- GI50 (NCI-H460): 2.01 µM
- GI50 (COLO-205): 1.69 µM
- GI50 (MDA-MB-435): 1.46 µM
- GI50 (OVCAR-5): 1.97 µM
- GI50 (MCF7; [1]): 0.69 µM
- GI50 (MCF7; [2]): 0.69 µM
- GI50 (SF-268): 1.77 µM
- GI50 (HCT-116): 1.02 µM
- GI50 (SF-295): 1.85 µM
- GI50 (SNB-75): 1.15 µM
- GI50 (HCC-2998): 1.68 µM
- GI50 (SN12C): 1.56 µM
- GI50 (OVCAR-8): 1.56 µM
- GI50 (NCI/ADR-RES): 2.23 µM
- GI50 (UACC-62): 1.56 µM
- GI50 (SF-539): 2.04 µM
